Changes are numbered by the printed parent chain. “And” between values parts separate entries of the source, which are not always exact repeats. Identical values can stand only once. “Also recorded” adds a separate entry of the source. Like-named read-outs stand apart in the source and are kept apart here.
Assays:
Olfr73 E208A = target: T1, Olfr73 E208A (Mus musculus, UniProt Q920P2, E208A); test: cAMP reporter gene (SEAP) assay, Olfr73 E208A in Hana3A cells; type: cell-based
T1 construct: Rho (rhodopsin) tag; Myc; expressed in transfected cells; host or cells: Hana 3A cells
T1 sequence (Q920P2 1-313 E208A): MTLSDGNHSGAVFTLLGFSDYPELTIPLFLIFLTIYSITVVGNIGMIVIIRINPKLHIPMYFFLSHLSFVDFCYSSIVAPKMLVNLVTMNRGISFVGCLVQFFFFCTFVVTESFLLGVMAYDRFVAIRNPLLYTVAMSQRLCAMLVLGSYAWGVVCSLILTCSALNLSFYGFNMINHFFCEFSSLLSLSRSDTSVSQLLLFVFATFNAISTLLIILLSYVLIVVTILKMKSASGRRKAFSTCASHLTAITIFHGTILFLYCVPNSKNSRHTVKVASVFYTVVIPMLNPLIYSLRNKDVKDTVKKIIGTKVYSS

Olfr73 S113A-E208A-Y260F = target: T2, Olfr73 S113A-E208A-Y260F (Mus musculus, UniProt Q920P2, E208A/S113A/Y260F); test: cAMP reporter gene (SEAP) assay, Olfr73 triple mutant in Hana3A cells; type: cell-based
T2 construct: Rho (rhodopsin) tag; Myc; expressed in transfected cells; host or cells: Hana 3A cells
T2 sequence (Q920P2 1-313 S113A/E208A/Y260F): T1 sequence (Q920P2 1-313 E208A) with S113A, Y260F

Olfr74 = system: Olfr74; design: method as in PMID 12767924; conditions: HEK cells ref 31; cited from earlier work
Olfr74 F260Y = Olfr74 F260Y (Mus musculus, UniProt Q920P1, F260Y); test: cAMP reporter gene (SEAP) assay, Olfr74 F260Y in Hana3A cells; type: cell-based
Chain of Olfr74 F260Y (Q920P1 entry or part of it F260Y): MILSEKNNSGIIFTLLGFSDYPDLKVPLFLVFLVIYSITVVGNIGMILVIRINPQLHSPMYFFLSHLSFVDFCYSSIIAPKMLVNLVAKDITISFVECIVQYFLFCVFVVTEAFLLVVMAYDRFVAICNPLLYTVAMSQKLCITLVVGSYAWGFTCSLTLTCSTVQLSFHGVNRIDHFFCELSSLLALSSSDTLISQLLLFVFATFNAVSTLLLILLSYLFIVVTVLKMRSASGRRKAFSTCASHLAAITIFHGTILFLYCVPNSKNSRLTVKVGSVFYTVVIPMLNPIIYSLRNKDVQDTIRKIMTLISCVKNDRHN
Procedure: (§1) Confluent Hana 3A cells (35000 cells per well) cultured in a 96-well plate at 37 °C (Perkin-Elmer) were transfected with 0.15 μg of wild-type or mutated Olfr73 or Olfr74 encoding plasmid DNAs and 0.15 μg of the cAMP response element secreted alkaline phosphatase reporter plasmid (pCRE-SEAP) using Lipofectamine 2000 (Invitrogen). Cells were induced 8 h after transfection with cell medium containing the ligand, or cell medium alone. For screening compound library, stock solutions of odorants (0.2–1 M) were prepared from pure compounds either in dimethyl sulfoxide (DMSO, Sigma-Aldrich, Buchs, CH) or ethanol and were stored at −20 °C. Mixtures of 5 to 10 odorants prepared form stock solutions, were diluted in serum-free DMEM and applied to the cells 8 hours after transfection (<100 μM, final individual odorant concentration). Experiments were carried out in triplicates and in parallel with a mock control (cells transfected with non-coding plasmid DNA). A relative SEAP activity [(n-1) times mock level] was calculated for each odorant mixture and those that induced an activity larger than 1 were considered for further analysis.
(§2) For odorant dose-dependent measurements of cAMP signaling specific ligands were added at increasing concentrations and measured in duplicates. Odorant-induced responses were measured using the SEAP activity reporter assay 16 h after stimulation. An aliquot of supernatant from each well was then mixed with an equal volume of 1 M diethanolamine bicarbonate (pH 9.8) containing 20 mM p-nitrophenyl phosphate and 1 mM MgCl2 (Sigma). The kinetics of hydrolysis of p-nitrophenol phosphate by alkaline phosphatase was determined by measuring the absorbance at 410 nm using a multiwell plate reader (SpectraMax 360, Molecular Devices). To remove SEAP activity background noise from the measurements, the mean value of mock control SEAP activity (Supplementary Figures 8 and 9) was subtracted from the mean value of OR-induced SEAP activity for each odorant concentration. Dose response curves and EC50 values were then determined by fitting these points with the Hill equation using IGOR Pro software (WaveMetrics, Portland, OR, USA). Statistical significance of the differences in EC50 values was analyzed using a two-tailed Student’s t test. p values below 0.05 were considered as being significant.

Olfr73 S113A = target: T3, Olfr73 S113A (Mus musculus, UniProt Q920P2, S113A); test: cAMP reporter gene (SEAP) assay, Olfr73 S113A in Hana3A cells; type: cell-based
T3 construct: Rho (rhodopsin) tag; expressed in transfected cells; host or cells: Hana 3A cells
T3 sequence (Q920P2 1-313 S113A): T1 sequence (Q920P2 1-313 E208A) with S113A, A208E

Olfr74 (mOR-EV) wt = target: T4, Olfr74 (mOR-EV) wt (Mus musculus, UniProt Q920P1); test: cAMP reporter gene (SEAP) assay, Olfr74 wild type in Hana3A cells; type: cell-based; conditions: for activation of Olfr74 wild type: result in words
T4 sequence (Q920P1 1-318): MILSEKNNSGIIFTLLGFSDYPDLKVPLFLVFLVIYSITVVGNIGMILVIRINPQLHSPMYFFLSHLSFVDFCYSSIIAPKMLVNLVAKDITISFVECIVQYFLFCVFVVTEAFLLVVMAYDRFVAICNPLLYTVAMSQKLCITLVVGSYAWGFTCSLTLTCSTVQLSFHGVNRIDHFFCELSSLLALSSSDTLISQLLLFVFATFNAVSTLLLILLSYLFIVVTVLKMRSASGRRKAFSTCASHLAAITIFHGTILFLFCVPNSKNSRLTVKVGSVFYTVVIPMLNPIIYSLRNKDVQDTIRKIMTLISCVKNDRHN

Olfr73 (mOR-EG) wt = target: T5, Olfr73 (mOR-EG) wt (Mus musculus, UniProt Q920P2); test: cAMP reporter gene (SEAP) assay, Olfr73 wild type in Hana3A cells; type: cell-based
T5 construct: Rho (rhodopsin) tag; Myc; Flag; expressed in transfected cells; host or cells: Hana 3A cells
T5 sequence (Q920P2 1-313): T1 sequence (Q920P2 1-313 E208A) with A208E

Olfr73 Y260F = target: T6, Olfr73 Y260F (Mus musculus, UniProt Q920P2, Y260F); test: cAMP reporter gene (SEAP) assay, Olfr73 Y260F in Hana3A cells; type: cell-based
T6 construct: Rho (rhodopsin) tag; Myc; expressed in transfected cells; host or cells: Hana 3A cells
T6 sequence (Q920P2 1-313 Y260F): T1 sequence (Q920P2 1-313 E208A) with A208E, Y260F
Procedure: Confluent Hana 3A cells (35000 cells per well) cultured in a 96-well plate at 37 °C (Perkin-Elmer) were transfected with 0.15 μg of wild-type or mutated Olfr73 or Olfr74 encoding plasmid DNAs and 0.15 μg of the cAMP response element secreted alkaline phosphatase reporter plasmid (pCRE-SEAP) using Lipofectamine 2000 (Invitrogen). Cells were induced 8 h after transfection with cell medium containing the ligand, or cell medium alone. […] Experiments were carried out in triplicates and in parallel with a mock control (cells transfected with non-coding plasmid DNA).

Olfr74 A113S = Olfr74 A113S (Mus musculus, UniProt Q920P1, A113S); test: cAMP reporter gene (SEAP) assay, Olfr74 A113S in Hana3A cells; type: cell-based
Chain of Olfr74 A113S (Q920P1 entry or part of it A113S): as the sequence (Q920P1 entry or part of it F260Y) above, with A113S, Y260F counted along it
Procedure: as §1
as §2, with “To remove SEAP activity background noise from the measurements, the mean value of mock control SEAP activity (Supplementary Figures 8 and 9) was subtracted from the mean value of OR-induced SEAP activity for each odorant concentration.” left out

Olfr74 A113S-A208E-F260Y = test: cAMP reporter gene (SEAP) assay, Olfr74 triple mutant in Hana3A cells; type: cell-based, mouse; conditions: result in words
Procedure: as §1, with “Mixtures of 5 to 10 odorants prepared form stock solutions, were diluted in serum-free DMEM and applied to the cells 8 hours after transfection (<100 μM, final individual odorant concentration). Experiments were carried out in triplicates and in parallel with a mock control (cells transfected with non-coding plasmid DNA).” left out
For odorant dose-dependent measurements of cAMP signaling specific ligands were added at increasing concentrations and measured in duplicates. Odorant-induced responses were measured using the SEAP activity reporter assay 16 h after stimulation. […] The kinetics of hydrolysis of p-nitrophenol phosphate by alkaline phosphatase was determined by measuring the absorbance at 410 nm using a multiwell plate reader (SpectraMax 360, Molecular Devices). […]

[1] = Hana3A cells, SEAP reporter, read-out: EC50 Olfr73 E208A
[2] = dash in Table 1 = no measurable response, read-out: EC50 Olfr73 S113A-E208A-Y260F
[3] = EC50 Olfr74 F260Y, Hana3A cells, SEAP reporter
[4] = dash in Table 1 = no measurable response, read-out: EC50 Olfr73 S113A
[5] = EC50 Olfr73 wt, Hana3A cells, SEAP reporter, dash in Table 1 = no measurable response
[6] = EC50 Olfr73 (E208A), Supplementary Table 1, rounded values derived from Fig. 2 and Supplementary Fig. 4, unit inferred
[7] = EC50 Olfr73 E208A, Hana3A cells, SEAP reporter
[8] = read-out: EC50 Olfr73 S113A-E208A-Y260F, dash in Table 1 = no measurable response
[9] = EC50 Olfr74 (F260Y), Supplementary Table 1, rounded values derived from Fig. 2 and Supplementary Fig. 4, unit inferred
[10] = read-out: EC50 Olfr73 S113A, dash in Table 1 = no measurable response
[11] = Hana3A cells, SEAP reporter, read-out: EC50 Olfr74 wt
[12] = rounded values derived from Fig. 2 and Supplementary Fig. 4, unit inferred, read-out: EC50 Olfr74 (WT), Supplementary Table 1
[13] = Hana3A cells, SEAP reporter, dash in Table 1 = no measurable response, read-out: EC50 Olfr73 wt
[14] = rounded values derived from Fig. 2 and Supplementary Fig. 4, unit inferred, read-out: EC50 Olfr73 (WT), Supplementary Table 1
[15] = dash in Table 1 = no measurable response, read-out: EC50 Olfr73 Y260F

| SMILES | EC50 (Olfr73 E208A; [1]) | EC50 (Olfr73 S113A-E208A-Y260F; [2]) [µM] | EC50 (Olfr74 F260Y; [3]) | EC50 (Olfr73 S113A; [4]) [µM] | EC50 (Olfr73 (mOR-EG) wt; [5]) [µM] | EC50 (Olfr73 E208A; [6]) [µM] | EC50 (Olfr73 E208A; [7]) [µM] | EC50 (Olfr73 S113A-E208A-Y260F; [8]) [µM] | EC50 (Olfr74 F260Y; [9]) [µM] | EC50 (Olfr73 S113A; [10]) [µM] | EC50 (Olfr74 (mOR-EV) wt; [11]) | EC50 (Olfr74 (mOR-EV) wt; [12]) [µM] | EC50 (Olfr74 A113S) | EC50 (Olfr73 (mOR-EG) wt; [13]) | EC50 (Olfr73 (mOR-EG) wt; [14]) [µM] | EC50 (Olfr73 Y260F; [15]) [µM] | activation of Olfr74 wild type (Olfr74 (mOR-EV) wt; Hana3A cells, SEAP reporter) | further results |
| --- | --- | --- | --- | --- | --- | --- | --- | --- | --- | --- | --- | --- | --- | --- | --- | --- | --- | --- |
| CCOc1cc(C=O)ccc1O [Ethyl vanillin, ethyl vanillin] | 147 ± 11 µM | > 100 | 171 ± 35 µM | 202 ± 44 | 35 ± 4 |  |  |  |  |  |  |  |  |  |  |  |  | cAMP signalling upon stimulation of Olfr74 (Olfr74): no cAMP signalling; activation of Olfr74 wild type (Olfr74 (mOR-EV) wt; Hana3A cells, SEAP reporter, listed as ethyl vanillin): no detectable activation; activation of Olfr74 wild type (Olfr74 (mOR-EV) wt; Hana3A cells, SEAP reporter, listed as ethyl-vanillin): no response was detected; also recorded: do not activate |
| C=C(C)[C@@H]1CCC2=CC(=O)C[C@@H](C)[C@]2(C)C1 [Nootkatone, nootkatone] |  |  | 35 µM and ~40 µM |  | 225 ± 76 | > 100 | 277 ± 54 | > 100 | 40 | > 100 | 86 µM and ~90 µM | 90 | 78 µM and ~80 µM |  |  |  |  | EC50 (Olfr73 Y260F; read-out: EC50 Olfr73 Y260F, dash in Table 1 = no measurable response): > 100 µM; EC50 (Olfr73 (mOR-EG) wt; EC50 Olfr73 (WT), Supplementary Table 1, rounded values derived from Fig. 2 and Supplementary Fig. 4, unit inferred): > 100 µM |
| CC(C)=CC1CC(C)CCO1 (centres unmarked) [Rose Oxide, rose oxide] | ~10 µM and 10 µM | > 100 | 42 µM and ~40 µM | 23 ± 24 |  |  |  |  | 40 |  | 155 ± 21 µM | > 100 | > 100 µM | 35 ± 20 µM | 30 |  |  | activation of Olfr74 triple mutant (A113S, A208E, F260Y) (Olfr74 A113S-A208E-F260Y): no detectable activation |
| CCC=CCC1=C(C)CCC1=O [Jasmone, 3-methyl-2-(pent-2-enyl)-cyclopent-2-enone] |  |  | 8 µM and ~10 µM |  |  | 70 | 66 ± 9 |  | 10 |  | 28 µM and ~30 µM | 30 | 71 µM and ~70 µM |  | > 100 |  |  | EC50 (Olfr73 S113A-E208A-Y260F; EC50 Olfr73 S113A-E208A-Y260F, dash in Table 1 = no measurable response): 83 ± 11 µM; EC50 (Olfr73 S113A; EC50 Olfr73 S113A, dash in Table 1 = no measurable response): > 100 µM; activation of Olfr73 wild type (Olfr73 (mOR-EG) wt; Hana3A cells, SEAP reporter, result in words): inactive |
| C/C=C/c1ccc(OC)c(OC)c1 [MIEG, methyl isoeugenol] |  |  | 406 ± 23 µM |  |  |  | 10 ± 5 | > 100 |  | > 100 |  |  |  | 131 ± 19 µM |  | > 100 | do not activate |  |
| COC(=O)c1ccc(O)c(OC)c1 [Methyl vanillate, methyl vanillate] | 347 ± 32 µM | > 100 | 447 ± 36 µM | > 100 |  |  |  |  |  |  |  |  |  | 240 µM and 241 µM |  | > 100 | do not activate |  |

Reference: publication PMC4598832 (Scientific Reports, 2015)
